Results reported in patent publication US8067440B2, “Phosphonium salts derivatives and uses thereof” (Valorisation-Recherche, Limited Partnership, priority 2004, dated 2011).
Counter-ions that a name gives are not always drawn.

melting point [°C]	SMILES
215 to 220	[Br-].c1ccc(P(c2ccccc2)c2cccc([P+](c3ccccc3)(c3ccccc3)c3ccccc3)c2)cc1
72 to 76	BrCc1ccc(-c2ccc([P+](c3ccccc3)(c3ccccc3)c3ccccc3)cc2)cc1 (as salt: perchlorate) [(16), 4-(4-bromomethylphenyl)phenyl triphenylphosphonium perchlorate]
